Read-outs that look alike come from different tables or passages of the source. Ends that are not written are not given here. Peptide text beside a SMILES is read from it.
Experiments:
S. epidermidis [1] = experiment: Post-antibiotic effect assay, S. epidermidis; type: cell-based, Staphylococcus epidermidis; conditions: S. epidermidis monoculture; peptide 10 min, then fresh medium; FIG. 17C
Protocol: (§1) The activity and selectivity of MH-STAMPs after a 10 min incubation was determined by growth retardation experiments against targeted and untargeted bacteria in monocultures, as described previously (Id.). Cells from overnight cultures were diluted to ˜5×10^6 cfu/mL in MH (or TH with 1% sucrose for S. mutans), normalized by OD600 0.05-0.1 and seeded to 96-well plates. Cultures were then grown under the appropriate conditions for 2 h (3 h for S. mutans) prior to the addition of peptides for 10 min. Plates were then centrifuged at 3000×g for 5 min, the supernatants discarded, fresh medium returned (MH or TH without sucrose for S. mutans), and incubation resumed. Bacterial growth after treatment was then monitored over time by OD600.
(§2) MH-STAMP antimicrobial kinetics was ascertained utilizing a variation of the classical post-antibiotic effect assay, which measures the ability of an agent to affect an organism's growth after a short exposure period. Monocultures of MH-STAMP-targeted and untargeted organisms were exposed to M8(KH)-20, M8(BL)-20, BL(KH)-20, or unmodified BD2.20, then allowed to recover. […] Furthermore, replacement of the targeting region with a non-binding peptide abolishes specific activity.

[2] = system: Mixed planktonic populations of P. aeruginosa, E. coli, S. epidermidis, and S. mutans; experiment: Microbial population shift assay; type: cell-based; conditions: mixed culture, 10 μM peptide, 24 h, detection limit 200 cfu/mL, FIG. 18
Protocol: Peptide (10 μM) or mock-treatment (1×PBS) was then added and samples were incubated at 37° C. for 24 h under anaerobic conditions (80% N2, 15% CO2, 5% H2). […] Plates were then incubated 37° C. under aerobic conditions (TH plates were incubated anaerobically) and colonies counted after 24 h to determine survivors. […] Gram stains and direct microscopic observation (from select isolated colonies) were undertaken to confirm species identity (data not shown). The detection limit of the assay was 200 cfu/mL.
We hypothesized that potential MH-STAMP dual-functionality could affect a particular set of bacteria within a mixed population, thereby promoting the outgrowth of non-targeted organisms and “shifting” the constituent makeup. To examine this possibility, defined mixed populations of planktonic cells were treated continuously and the make-up of the community examined after 24 h.

P. aeruginosa [3] = experiment: Post-antibiotic effect assay, P. aeruginosa; type: cell-based, Pseudomonas aeruginosa; conditions: P. aeruginosa monoculture; peptide 10 min, then fresh medium; FIG. 17B
Protocol: as §1, §2

S. aureus = experiment: Post-antibiotic effect assay, S. aureus; type: cell-based, Staphylococcus aureus; conditions: S. aureus monoculture; peptide 10 min, then fresh medium; FIG. 17D
Protocol: as §1, §2

S. mutans [4] = experiment: Post-antibiotic effect assay, S. mutans; type: cell-based, Streptococcus mutans; conditions: S. mutans monoculture; peptide 10 min, then fresh medium; FIG. 17A
Protocol: as §1, §2

E. coli = experiment: Post-antibiotic effect assay, E. coli; type: cell-based, Escherichia coli; conditions: E. coli monoculture; peptide 10 min, then fresh medium; FIG. 17E
Protocol: as §1, §2

[5] = system: mixed biofilms of S. oralis, S. gordonii, S. mitis, S. sanguinis, S. salivarius, and S. mutans JM11; experiment: Photodynamic antimicrobial assay, multispecies biofilm; type: cell-based
Protocol: To gauge C16-RB selectivity for S. mutans, similar assays were conducted against multispecies biofilms. Mixed biofilms were seeded by diluting (1:5000) a mixture of equal parts S. oralis, S. gordonii, S. mitis, S. sanguinis, S. salivarius, and S. mutans JM11 (made from overnight cultures) into TH with 1% sucrose, 1% glucose, and 1% mannose. Biofilms were incubated and treated as described above with the addition of vitamin C or potassium gluconate. After the addition of agent and 5 min incubation, biofilms were washed 1× with 1×PBS prior to light exposure. After PDT and biofilm disruption, survivors were plated on TH, and TH supplemented with 800 μg/mL spectinomycin, which allowed for quantitation of surviving total oral streptococci and surviving S. mutans, respectively.
C16-RB was next evaluated for selectivity in mixed cultures containing S. mutans and non-cariogenic oral streptococci that compete for the same niche on the tooth surface. We utilized mixed biofilms of S. mutans transformed with spectinomycin resistance (strain JM11, Merritt, et al., 2005), plus S. oralis, S. gordonii, S. mitis, S. sanguinis, and S. salivarius. The mixed cultures were grown 24 and then treated with RB or C16-RB as indicated, plus potassium gluconate to minimize killing of untargeted bacteria by reducing the superoxide-producing activity of the free C16-RB not bound to S. mutans. […]

[6] = system: BHK-21 (ATCC CRL-10) fibroblasts; experiment: Cytotoxicity (Promega CellTiterGlo assay); type: cell-based, hamster
Protocol: Streptococcus oralis ATCC 10557, Streptococcus gordonii (Challis), Streptococcus sanguinis (NY101), Streptococcus mitis ATCC 903, Streptococcus salivarius ATCC 13419 and S. mutans wild-type UA140 and JM11 (spectinomycin-resistant) strains were grown in Todd-Hewitt (TH) broth 37° C. in an anaerobic atmosphere of 80% N2, 10% CO2, and 10% H2. BHK-21 (ATCC CRL-10) fibroblasts were propagated in DMEM with 10% FBS, 1 mM sodium pyruvate, 100 units/mL penicillin G, and 100 μg/mL streptomycin at 37° C. with 5% CO2. Cells were detached with 0.25% trypsin and subcultured as recommended by the supplier.
The effect of RB and C16-RB on human fibroblasts was ascertained by utilizing the Promega CellTiterGlo assay, as described by the manufacturer. Briefly, fibroblasts were grown to confluence, detached, and seeded to 5,000 cells per well in a 96-well opaque walled, clear bottom 96-well plate (Nunc International). For long-term dark toxicity, cells were allowed to attach to for 18 h before the culture medium was replaced with medium plus serially-diluted RB or C16-RB (200 μM to 390 nM) or medium alone. After 18-24 h, equal volume Cell Titer Glo reagent was added to each well and mixed. Luciferace activity was then quantified to measure cell viability (Varian Fluorometer in Biolumenescence mode). To measure cytotoxicity after RB or C16-RB light exposure, cells were seeded at ˜10,000 cells per well and allowed to attach for 4 h. Cell growth medium was then replaced with RB or C16-RB containing medium, prior to exposure (a single well at a time) with blue light (400 mW/cm^2) suspended ˜3 cm from the well bottom. After exposure, cultures were disrupted with Cell Titer Glo and luciferase activity quantitated as above.

S. mutans UA140 biofilms = experiment: Photodynamic antimicrobial assay, single-species biofilm; type: cell-based, Streptococcus mutans; conditions: 24 h S. mutans biofilm; 5 μM, no light
Protocol: To evaluate C16-RB against monoculture biofilms, S. mutans UA140 was grown overnight in TH prior to inoculation for biofilm formation. For biofilms, 1:5000 dilution of overnight culture was made into TH with 1% sucrose in 2 mL centrifuge tubes (200 μL volume) and grown 24 h under anaerobic conditions. After incubation, biofilms were treated for 5 min with 5 or 25 μM C16-RB or 5 μM RB in 1×PBS, or PBS alone, followed by removal of supernatant and exposure to 5 min blue light (emission 400-550 nm, power 400 mW/cm^2) from an Astralis 7 (Ivoclar Vivodent, Austria) handheld LED commonly used as a dental curing light. The light source was suspended 4 cm from the tube bottom (even with the mouth of the tube). A duplicate set of samples were left covered to serve as dark controls. After treatment, biofilms were mechanically disrupted and plated to determine cfu/mL.
After synthesis, the basic photosensitization potential of C16-RB was assessed by challenging mature single-species S. mutans biofilms (grown 24 h) with C16-RB or unmodified RB, followed by blue emission from a dental curing light.

A. niger = experiment: MIC test / antimicrobial activity, A. niger; type: cell-based, Aspergillus niger
Protocol: (§3) The active AMPs, STAMPs and the like can be identified and/or validated using an in vitro screening assay.
(§4) It will be appreciated that other assays as are well known in the art or that will become apparent to those having skill in the art upon review of this disclosure may also be used to identify active AMPs. Such assays include, for example, the assay described in Lehrer et al. (1988) J. Immunol.
(§5) Peptides were evaluated for basic antimicrobial activity by broth microdilution, as described previously (Eckert et al. (2006) Antimicrob Agents Chemother., 50: 3651-3657; Eckert et al. (2006) Antimicrob Agents Chemother., 50: 1480-1488). Briefly, ˜1×10^5 cfu/mL bacteria were diluted in TH (S. mutans), or Mueller-Hinton (MH) broth (all other organisms) and distributed to 96-well plates. Serially-diluted (2-fold) peptides were then added and the plates incubated at 37° C. for 18-24 h. […] All experiments were conducted 10 times.

microorganisms [7] = experiment: Peptide activities: targeting/binding, antimicrobial, growth or phenotype altering (Tables 7, 8); type: cell-based; conditions: peptides having multiple activities
T. rubrum = experiment: MIC test / antimicrobial activity, T. rubrum; type: cell-based, Trichophyton rubrum
Protocol: as §3, §4, §5

microorganisms [8] = experiment: Morphology, biofilm and growth disrupting peptides (Table 5); type: cell-based; set-up: key: A: Peptide aggregates; B: Less hyphal formation; Clumps; Diffuse clumps and small polyps; F: Diffuse growth; H: Thin; I: Growth inhibition; Microcolony formation; Rippled; Small polyps; Thick; W: Halo formation on top, microlonies on bottom
From the text: In certain embodiments peptides that induce alterations in phenotype or other biological activities can also be used as antimicrobial effector moieties.

C. jeikeium = experiment: MIC test / antimicrobial activity, C. jeikeium; type: cell-based, Corynebacterium jeikeium
Protocol: as §3, §4, §5

B. subtilis = experiment: MIC test / antimicrobial activity, B. subtilis; type: cell-based, Bacillus subtilis
Protocol: as §3, §4, §5

P. aeruginosa [9] = experiment: MIC test (broth microdilution) / antimicrobial activity, P. aeruginosa; type: cell-based, Pseudomonas aeruginosa
Protocol: as §3, §4, §5

S. epidermidis [10] = experiment: MIC test (broth microdilution) / antimicrobial activity, S. epidermidis; type: cell-based, Staphylococcus epidermidis
Protocol: as §3, §4, §5

MRSA = experiment: MIC test / antimicrobial activity, MRSA; type: cell-based, Methicillin-resistant Staphylococcus aureus
Protocol: as §3, §4, §5

C. difficile = experiment: MIC test / antimicrobial activity, C. difficile; type: cell-based, Clostridium difficile
Protocol: as §3, §4, §5

A. baumannii = experiment: MIC test / antimicrobial activity, A. baumannii; type: cell-based, Acinetobacter baumannii
Protocol: as §3, §4, §5

S. mutans [11] = experiment: MIC test (broth microdilution) / antimicrobial activity, S. mutans; type: cell-based, Streptococcus mutans
Protocol: as §3, §4, §5

CC[C@H](C)[C@H](NC(=O)[C@@H](N)Cc1ccccc1)C(=O)N[C@@H](CCCNC(=N)N)C(=O)N[C@@H](CCCCN)C(=O)N[C@@H](Cc1ccccc1)C(=O)N[C@@H](CC(C)C)C(=O)N[C@@H](CCCCN)C(=O)N[C@@H](CCCCN)C(=O)N[C@@H](Cc1c[nH]c2ccccc12)C(=O)N[C@@H](CC(C)C)C(=O)N[C@@H](CC(C)C)C(N)=O [BD2.20] (H-FIRKFLKKWLL-NH2; N-terminus assumed)
growth after treatment (culture recovery, OD600) (S. epidermidis [1]): inhibited | surviving P. aeruginosa ([2]; input ~0.5×10^4 cfu/mL): significant loss of recoverable cfu/mL | surviving E. coli ([2]; input ~2×10^4 cfu/mL): significant loss of recoverable cfu/mL | surviving S. epidermidis ([2]; input ~2×10^4 cfu/mL): significant loss of recoverable cfu/mL | surviving S. mutans ([2]; input ~6×10^4 cfu/mL): significant loss of recoverable cfu/mL | growth after treatment (culture recovery, OD600) (P. aeruginosa [3]): robust antimicrobial activity | growth after treatment (culture recovery, OD600) (S. aureus): inhibited | growth after treatment (culture recovery, OD600) (S. mutans [4]): robust antimicrobial activity | growth after treatment (culture recovery, OD600) (E. coli): inhibited

O=C1OC2(c3cc(I)c(O)c(I)c3Oc3c2cc(I)c(O)c3I)c2c(Cl)c(Cl)c(Cl)c(Cl)c21 [RB, rose bengal]
selectivity of photodynamic antimicrobial activity ([5]; blue light illumination, FIG. 22): strong indiscriminant photodynamic antimicrobial effects | ratio of surviving S. mutans:non-cariogenic streptococci cfu ([5]; potassium gluconate, blue light): ~1 | IC50 ([6]; 5 min w/blue light): 40 µM | IC50 (μM) BHK ([6]; 5 min w/blue light): light-dependent toxicity | IC50 ([6]; 24 h dark): 90 µM | decrease in cfu/mL, dark control (S. mutans UA140 biofilms): appreciable decreases in cfu/mL were not observed

GSVIKKRRKRMAKKKHRKLLKKTRIQRRRAGK [PF-527]
Organism MIC (μM) (A. niger): A. niger, 50 μM | Activities (microorganisms [7]): G B M | Organism MIC (μM) (T. rubrum): T. rubrum, 25 μM | Organism, effect (microorganisms [8]; B. subtilis): B. subtilis (I) | Organism, effect (microorganisms [8]; C. albicans): C. albicans (B) | Organism, effect (microorganisms [8]; C. jeikeium): C. jeikeium (I) | Organism, effect (microorganisms [8]; C. jejuni): C. jejuni (M) | Organism, effect (microorganisms [8]; M. luteus): M. luteus (S) | Organism, effect (microorganisms [8]; MRSA): MRSA (I) | Organism, effect (microorganisms [8]; P. aeruginosa): P. aeruginosa (I) | Organism, effect (microorganisms [8]; S. epidermidis): S. epidermidis (M) | Organism, effect (microorganisms [8]; S. pneumoniae): S. pneumoniae (H) | Organism MIC (μM) (C. jeikeium): C. jeikeium, 6.25 μM | Organism MIC (μM) (B. subtilis): B. subtilis, 12.5 μM | Organism MIC (μM) (P. aeruginosa [9]): P. aeruginosa, 50 μM | Organism MIC (μM) (S. epidermidis [10]): S. epidermidis, 25 μM | Organism MIC (μM) (MRSA): MRSA, 50 μM

YIQFHLNQQPRPKVKKIKIFL-NH2 [PF-531]
Organism MIC (μM) (A. niger): A. niger, 25 μM | Activities (microorganisms [7]): G M | Organism MIC (μM) (C. difficile): C. difficile, 12.5 μM | Organism MIC (μM) (T. rubrum): T. rubrum, 50 μM | Organism, effect (microorganisms [8]; E. coli): E. coli (M) | Organism, effect (microorganisms [8]; P. aeruginosa): P. aeruginosa (I) | Organism, effect (microorganisms [8]; S. epidermidis): S. epidermidis (I) | Organism, effect (microorganisms [8]; S. pneumoniae): S. pneumoniae (C) | Organism MIC (μM) (C. jeikeium): C. jeikeium, 6.25 μM | Organism MIC (μM) (B. subtilis; B. subtilis): B. subtilis, 25 μM | Organism MIC (μM) (A. baumannii): A. baumannii, 25 μM | Organism MIC (μM) (P. aeruginosa [9]; P. aeruginosa): P. aeruginosa, 50 μM | Organism MIC (μM) (S. epidermidis [10]; S. epidermidis): S. epidermidis, 50 μM | Organism MIC (μM) (S. mutans [11]): S. mutans, 12.5 μM

— US20110039763A1, “TARGETED ANTIMICROBIAL MOIETIES” (C3 JIAN, INC., priority 2009, published 2011)
